Patent US8895585B2, “Nicotinamide derivative or salt thereof” (FUJIFILM Corporation, priority 2010, dated 2014)

Columns and labels:
[1] = biological target: T1, glutathione S-transferase (GST)-fused full-length human Syk protein (Homo sapiens, UniProt P43405); experiment: Syk enzyme assay; type: biochemical; details: Syk enzyme assay, Test Example 1; read-out: IC50 of Syk-inhibitory activity
T1 construct: (GST)-fused full-length human Syk protein; GST (glutathione S-transferase); purchased Carna Biosciences
Method in brief: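 GST-tagged full-length human Syk (baculovirus) preincubated with compound 15 min at room temperature (pH 7.0, 10 mM MgCl2), then reacted 40 min with 0.4 μM biotinylated peptide substrate and 27 μM ATP (final). Phosphorylation read by HTRF (615/665 nm) after EDTA stop; IC50 reported.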

[2] = tested on: THP-1 cells; experiment: TNFα generation assay; type: cell-based, human; details: Homo sapiens, THP-1, THP-1 cells; Table 22; read-out: IC50 in TNFα generation assay
Method in brief: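 THP-1 cells differentiated to macrophage-like cells with 10 ng/ml IFN-γ for 2 days, preincubated with compound 30 min at room temperature, then cultured 7 h on plates coated with human IgG (10 μg/ml). Secreted TNFα measured by ELISA or AlphaLISA.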

IC50 [1] [µM] | IC50 [2] [µM] | Structure (SMILES)
< 0.01 | 0.065 to 0.13 | CC[C@@H](Nc1nc(Nc2ccc3c(cnn3CCOC)c2)c(C(N)=O)cc1F)[C@H](C)N [Example 006-313, 6-(((2S,3R)-2-aminopentan-3-yl)amino)-5-fluoro-2-((1-(2-methoxyethyl)-1H-indazol-5-yl)amino)nicotinamide]
< 0.01 | < 0.065 | CCC[C@@H](Nc1nc(Nc2ccc3c(cnn3CCOC)c2)c(C(N)=O)cc1F)[C@H](C)N [Example 006-314, 6-(((2S,3R)-2-aminohexan-3-yl)amino)-5-fluoro-2-((1-(2-methoxyethyl)-1H-indazol-5-yl)amino)nicotinamide]
< 0.01 | < 0.065 | CC[C@@H](Nc1nc(Nc2ccnc(-c3cc(OC)ccc3F)c2)c(C(N)=O)cc1F)[C@H](C)N [Example 006-315, 6-(((2S,3R)-2-aminopentan-3-yl)amino)-5-fluoro-2-((2-(2-fluoro-5-methoxyphenyl)pyridin-4-yl)amino)nicotinamide]
0.01 to 0.05 | 0.13 to 0.2 | CC(C)C[C@H](CN)Nc1nc(Nc2cncc(-c3ccccc3F)c2)c(C(N)=O)cc1F [Example 006-316, (R)-6-((1-amino-4-methylpentan-2-yl)amino)-5-fluoro-2-((5-(2-fluorophenyl)pyridin-3-yl)amino)nicotinamide]
< 0.01 | 0.13 to 0.2 | COc1cccc(-c2cncc(Nc3nc(N[C@@H](CN)CC(C)C)c(F)cc3C(N)=O)c2)c1 [Example 006-317, (R)-6-((1-amino-4-methylpentan-2-yl)amino)-5-fluoro-2-((5-(3-methoxyphenyl)pyridin-3-yl)amino)nicotinamide]
0.01 to 0.05 | 0.13 to 0.2 | COc1cccc(-c2cncc(Nc3nc(N[C@@H](CN)CC(C)C)c(F)cc3C(N)=O)c2)c1F [Example 006-318, (R)-6-((1-amino-4-methylpentan-2-yl)amino)-5-fluoro-2-((5-(2-fluoro-3-methoxyphenyl)pyridin-3-yl)amino)nicotinamide]
< 0.01 | 0.13 to 0.2 | COc1ccc(F)c(-c2cc(Nc3nc(N[C@@H](CN)CC(C)C)c(F)cc3C(N)=O)ccn2)c1 [Example 006-321, (R)-6-((1-amino-4-methylpentan-2-yl)amino)-5-fluoro-2-((2-(2-fluoro-5-methoxyphenyl)pyridin-4-yl)amino)nicotinamide]
< 0.01 | 0.065 to 0.13 | CCCC[C@H](CN)Nc1nc(Nc2ccc3c(cnn3CC)c2)c(C(N)=O)cc1F [Example 006-323, (R)-6-((1-aminohexan-2-yl)amino)-2-((1-ethyl-1H-indazol-5-yl)amino)-5-fluoronicotinamide]
< 0.01 | 0.13 to 0.2 | CC(C)C[C@H](CN)Nc1nc(Nc2ccnc(-c3ccccc3F)c2)c(C(N)=O)cc1F [Example 006-324, (R)-6-((1-amino-4-methylpentan-2-yl)amino)-5-fluoro-2-((2-(2-fluorophenyl)pyridin-4-yl)amino)nicotinamide]
< 0.01 | < 0.065 | CC[C@@H](Nc1nc(Nc2ccnc(-c3ccccc3F)c2)c(C(N)=O)cc1F)[C@H](C)N [Example 006-329, 6-(((2S,3R)-2-aminopentan-3-yl)amino)-5-fluoro-2-((2-(2-fluorophenyl)pyridin-4-yl)amino)nicotinamide]
< 0.01 | < 0.065 | CC[C@@H](Nc1nc(Nc2ccnc(-c3cccc(OC)c3)c2)c(C(N)=O)cc1F)[C@H](C)N [Example 006-330, 6-(((2S,3R)-2-aminopentan-3-yl)amino)-5-fluoro-2-((2-(3-methoxyphenyl)pyridin-4-yl)amino)nicotinamide]
< 0.01 | 0.065 to 0.13 | CC[C@@H](Nc1nc(Nc2ccnc(-c3ccc(OC)cc3)c2)c(C(N)=O)cc1F)[C@H](C)N [Example 006-331, 6-(((2S,3R)-2-aminopentan-3-yl)amino)-5-fluoro-2-((2-(4-methoxyphenyl)pyridin-4-yl)amino)nicotinamide]
